Measured values published in patent US20220127297A1, “Novel Antibacterial 3"-Derivatives Of 4,6-Disubstituted 2,5-Dideoxystreptamine Aminoglycoside Antibiotics” (AGILeBiotics B.V., priority 2018, published 2022).
In brackets after ≈: the same amount, converted by molar mass.

Tested on: E. coli (AAC(3)III)
Assay: MIC 50, broth micro-dilution, E. coli expressing AAC(3)III
Type: cell-based, Escherichia coli
Conditions: Escherichia coli, ATCC25922, ATCC25922 harboring plasmid encoding AAC(3)III
Excerpt: Cloning resistant enzymes. An Escherichia coli codon optimized gene encoding AAC(3)-III (GenBank acc.nr. X55652.1; SEQ ID NO:1), including a promoter and terminator sequence, was synthesized by Integrated DNA Technologies, Belgium. The synthesized gene and pBluescript II KS(+) plasmid were digested using the restriction enzymes SacI and SalI, and purified from a 1% TBE-agarose gel using the illustra Gel Band purification kit. The purified linear plasmid and T4 DNA ligase were used to ligate aac(3)-III under control of the constitutive lipoprotein Ipp promoter and ribosomal RNA rrnC terminator, resulting in pBlue_Ipp_aacC3_rrnC.
Plasmid transformation. Approximately 500 ng of the pET-9b(+) (Cat. No. 69432-3, Merck), pAT21-1 (provided by Prof. Dr. Patrice Courvalin, M.D., Pasteur Institute, France; prepared according to Trieu-Cuot et. al, Mol. Gen. Genet. 198(2), 348 (1985)), pBluescript::AAC(6′)-Ie/APH(2″)-Ia (provided by Prof. Dr. Sergei Vakulenko, M.D., University of Notre Dame, Ind., USA; prepared according to S. B. Vakulenko et. al., J. Biol. Chem. 287 (52), 43262 (2012)), pBlue_lpp_aacC3_rrnC and pSET152 (Cat. No. PVT3395, Life Science Market; prepared according to Bierman et al., Gene 116 (1), 43 (1992)) plasmids, encoding APH(3′)-Ia (SEQ ID NO:2), APH(3′)-IIIa (SEQ ID NO:3), AAC(6′)Ie-APH(2″)-Ia (SEQ ID NO:4), AAC(3)-III (SEQ ID NO:1), and AAC(3)-IV (SEQ ID NO:5) respectively, were individually incubated in a vial of competent cells for 15 min on ice. The cells were subsequently heated to 42° C. for 90 s, and cooled on ice for 1 min. After addition of 900 μL LB, the cells were incubated for 1 h at 37° C. and 200 rpm. Cells were plated on LB-agar supplemented with 50 μg/mL KanaA and incubated for 18 h at 37° C. The next day, a single colony was inoculated in 5 mL LB supplemented with 50 μg/mL and grown for 18 h at 37° C. and 200 rpm. A 200 μL sample of each culture was diluted with 200 μL of 40% v/v glycerol in water, and stored at −80° C. The plasmid was purified from the remaining culture using the Plasmid Miniprep kit. Plasmid DNA was investigated by Eurofins Genomics (Germany) to confirm the identity of the aminoglycoside resistance genes.
3.1 Against E. coli Strains
Tested reference compounds. Amikacin sulfate (Cat. No. 01693, Chem-Impex), Gentamicin sulfate (Cat. No. G4918, Sigma Aldrich).
Microbial strains. E. coli ATCC 25922, E. coli ATCC 25922/pET-9b(+), E. coli ATCC 25922/pAT21-1, E. coli ATCC 25922/pBluescript::AAC(6′)-Ie/APH(2″)-Ia, E. coli ATCC 25922/pBlue_lpp_aacC3_rrnC, E. coli ATCC 25922/pSET152.
Culture media and equipment. BBL™ Mueller Hinton Broth 2 (Lot. BCBW1143, Cat. No. 70192, Sigma); Kanamycin A (Cat. No. A1493, AppliChem); 96-well deep well plate, 1 mL (Cat. No. 0030506.200, Eppendorf); Plate lids (Cat. No. 0030131.525, Eppendorf); 96-well plate, F-bottom (Cat. No. 781602, Brand; Incubator, Infors Multitron Pro); Laminar flow (Heraeus KS12); UV/VIS meter (Eppendorf BioPhotometer Plus); Platereader (Tecan Sunrise).
Compound preparation. Compounds were prepared in MH2 media at a concentration of 5 mM and stored at 4° C. For testing, solutions of 128 μM were prepared in MH2. Out of these working solutions, 400 μL was transferred to wells in the first column of 96-well deep well plates. Each compound was transferred in triplicate. Plates were previously filled with 200 μL of MH2 media in all wells except for the wells in the first column. After compound and antibiotic addition, the compounds were serial two-fold diluted by transferring 200 μL from the first to the second column, then from the second to the third column and so on. Finally, 200 μL was removed from the last column.
Inoculum preparation. Microorganisms used were all revived from 20% glycerol (40% v/v glycerol in water was diluted with MH2) storage at −80° C. by inoculating them in 5 mL MH2. inoculums of E. coli containing a plasmid were selected for by adding 50 μg/mL KanaA.

Compound	MIC50
N=C(N)NC1[C@@H](O)C(OC2[C@@H](F)[C@H](O[C@H]3OC(CNCCO)[C@@H](O)CC3N)C(N)C[C@H]2NC(=O)[C@@H](O)CCN)O[C@H](CO)[C@H]1O (stereo partly shown) [ABX5045, 6N-2-hydroxy-ethyl-Tobra-AHB-F-Gua]	0.5 to 1 µM (≈ 0.328 to 0.657 µg/mL)
N=C(NCC1CCCO1)NC1[C@@H](O)C(OC2[C@@H](F)[C@H](O[C@H]3OC(CN)[C@@H](O)CC3N)C(N)C[C@H]2NC(=O)[C@@H](O)CCN)O[C@H](CO)[C@H]1O (stereo partly shown) [ABX5046, Tobra-AHB-F-Gua tetrahydrofuran-2-yl methyl]	0.5 µM (≈ 0.348 µg/mL)
C[C@@H](N)CCNC(=N)NC1[C@@H](O)C(OC2[C@@H](F)[C@H](O[C@H]3OC(CN)[C@@H](O)CC3N)C(N)C[C@H]2NC(=O)[C@@H](O)CCN)O[C@H](CO)[C@H]1O (stereo partly drawn) [ABX5047, Tobra-AHB-F-Gua (R) 3-amino-butyl]	0.25 µM (≈ 0.171 µg/mL)
N=C(NCc1ccncc1)NC1[C@@H](O)C(OC2[C@@H](F)[C@H](O[C@H]3OC(CN)[C@@H](O)CC3N)C(N)C[C@H]2NC(=O)[C@@H](O)CCN)O[C@H](CO)[C@H]1O (stereo partly shown) [ABX5048, Tobra-AHB-F-Gua pyridin-4-yl methyl]	0.5 to 1 µM (≈ 0.352 to 0.704 µg/mL)
N=C(NCc1cnc[nH]1)NC1[C@@H](O)C(OC2[C@@H](F)[C@H](O[C@H]3OC(CN)[C@@H](O)CC3N)C(N)C[C@H]2NC(=O)[C@@H](O)CCN)O[C@H](CO)[C@H]1O (stereo partly shown) [ABX5050, Tobra-AHB-F-Gua imidazol-5-yl methyl]	1 µM (≈ 0.693 µg/mL)
N=C(NCC1CCOC1)NC1[C@@H](O)C(OC2[C@@H](F)[C@H](O[C@H]3OC(CN)[C@@H](O)CC3N)C(N)C[C@H]2NC(=O)[C@@H](O)CCN)O[C@H](CO)[C@H]1O (stereo partly shown) [ABX5051, Tobra-AHB-F-Gua tetrahydrofuran-3-yl methyl]	0.5 to 1 µM (≈ 0.348 to 0.697 µg/mL)
NCC[C@H](O)C(=O)N[C@@H]1C[C@H](N)[C@@H](O[C@H]2O[C@H](CN)[C@@H](O)[C@H](O)[C@H]2O)[C@H](O)[C@H]1O[C@H]1O[C@H](CO)[C@@H](O)[C@H](N)[C@H]1O [Amikacin, amikacin, reference compound]	2 µM (≈ 1.17 µg/mL)
